Reference: ChEMBL document CHEMBL1151253, “Further membranolide diterpenes from the antarctic sponge dendrilla membranosa” (2004)

Columns and labels:
Format in all cases: functional
Conditions in all cases: read-out: IZ
Escherichia coli = test: Antibiotic activity against Escherichia coli at 200 ug/disk after 24 hrs by disk diffusion method
Staphylococcus aureus = test: Antibiotic activity against Staphylococcus aureus at 200 ug/disk after 24 hrs by disk diffusion method
Candida albicans = test: Antifungal activity against Candida albicans at 200 ug/disk after 24 hrs by disk diffusion method

CO[C@@H]1O[C@@H](OC)c2c1ccc([C@@]1(C)CCCC(C)(C)C1)c2[C@@H](C)C(=O)O [MEMBRANOLIDE C]
zone of inhibition at 200 µg/disc (Escherichia coli): 8 mm | zone of inhibition at 200 µg/disc (Staphylococcus aureus): 0 mm | zone of inhibition at 200 µg/disc (Candida albicans): 4 mm

CO[C@H]1O[C@@H](OC)c2c1ccc([C@@]1(C)CCCC(C)(C)C1)c2[C@@H](C)C(=O)O [MEMBRANOLIDE D]
zone of inhibition at 200 µg/disc (Escherichia coli): 6 mm | zone of inhibition at 200 µg/disc (Staphylococcus aureus): 7 mm | zone of inhibition at 200 µg/disc (Candida albicans): 9 mm
